From publication PMC11434850, “Biosynthesis of Piceatannol from Resveratrol in Grapevine Can Be Mediated by Cresolase-Dependent Ortho-Hydroxylation Activity of Polyphenol Oxidase” (Plants, 2024) come the findings set out here.

In the test the test system is T1, polyphenol oxidase (PPO), cresolase activity; most likely isoform XP_010647098.3.
T1 construct: pooled fractions A7 and A8; immunoreactive bands 40, 52 and faint 70 kDa; proteolytic processing possible
The experiment in a line: Michaelis-Menten / double reciprocal plot; piceatannol formation by LC-MS MRM. The class given is biochemical, Vitis vinifera. The following applies: o-hydroxylation (cresolase) to piceatannol; O2, 1 mM ascorbate, 0.1 M potassium phosphate pH 7.5, room temperature, 90 min, 5 to 200 µM substrate; partially purified, mixture of A7 and A8 fractions.

With `Oc1ccc(/C=C/c2cc(O)cc(O)c2)cc1` [trans-resveratrol, 3,4′,5-trihydroxy-trans-stilbene], the Km was found to be 118 ± 49.8 µM.
